Data from patent US20170143733A1, “COMPOUNDS AND METHODS FOR SKIN REPAIR” (Allergan, Inc., priority 2012, published 2017).

The compounds below were run against T1, EP2 (Homo sapiens, UniProt P43116) (assay: EP2 binding assay (Ki)). Settings: not given.
T1 sequence (P43116 whole entry): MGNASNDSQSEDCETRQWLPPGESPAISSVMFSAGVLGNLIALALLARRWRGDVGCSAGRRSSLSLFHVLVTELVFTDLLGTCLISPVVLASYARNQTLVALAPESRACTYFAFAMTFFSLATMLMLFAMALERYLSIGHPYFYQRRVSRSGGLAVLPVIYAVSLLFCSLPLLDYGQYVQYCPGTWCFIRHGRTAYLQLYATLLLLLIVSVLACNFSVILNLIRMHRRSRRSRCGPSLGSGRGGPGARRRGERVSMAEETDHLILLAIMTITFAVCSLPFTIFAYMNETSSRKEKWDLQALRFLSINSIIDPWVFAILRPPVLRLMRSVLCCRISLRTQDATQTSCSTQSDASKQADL

IC50 | Compound
21 nM | CCCCC[C@H](O)c1ccc(N2C(=O)CC[C@@H]2CCCc2ccc(C(=O)O)s2)cc1 [Compound 3]
1 nM | O=C(O)c1ccc(CC2Sc3c(Cl)cccc3N(Cc3ccccc3C(F)(F)F)C2=O)cc1 (stereo not drawn) [Compound 5]
4650 nM | O=C(O)c1ccc(CCCN2C(=O)CC[C@@H]2CC[C@@H](O)Cc2cccc(C(F)(F)F)c2)s1 [Compound 4]
> 10000 nM | O=C(O)CCCCCC[C@H]1C(=S)CCC[C@@H]1CCC(O)Cc1ccccc1 (stereo partly drawn) [Compound 1]

What follows are compounds tested on incisional wounds (assay: Incisional skin wound model and assessment). Settings: rats, Day 7, topical 0.004% twice daily for 5 days, drug-treated, scale of 0 to 6, higher = severer scar.
Format: in vivo, Sprague-Dawley rats
Source text: Sprague-Dawley rats at 180-200 gram were anesthetized with isoflourane. After shaving, 2-cm long incisions were made on the left and right side of the back, reaching the deep fascia on the back skin of rats under sterile conditions. Incisional wounds were immediately closed with 4.0 sutures, and then topically treated with a vehicle or test drugs at 0.004% twice daily for 5 days. The vehicle used here contains ethanol 30%, propylene glycol 12%, dipropylene glycol 5%, benzyl alcohol 5%, glycerol 3% and normal saline 45%. Wounds were photographed on day 7. All photos were coded and scored by lay people. Evaluation of wound sites was based on scar width, palpability (elevation) of wound areas, and general progress in healing, using a scale of 0 to 6; the severer a scar, the higher the score. Each scar was divided into 4 regions, separated by suture sites; each quarter was scored independently; the mean of the 4 part scores was recorded as the overall scar score of each incision site.

Compound | Scar Scores
O=C(O)c1ccc(CC2Sc3c(Cl)cccc3N(Cc3ccccc3C(F)(F)F)C2=O)cc1 (stereo not drawn) [Compound 5] | 0.56 ± 0.07
O=C(O)c1ccc(CCCN2C(=O)CC[C@@H]2CC[C@@H](O)Cc2cccc(C(F)(F)F)c2)s1 [Compound 4] | 0.76 ± 0.07
CC1(C)C(=O)[C@H](C/C=C\CCCC(=O)O)[C@@H](/C=C/[C@H](O)CCc2sc3ccccc3c2Cl)[C@@H]1O [Compound 2] | 0.60 ± 0.1

Each compound was assayed against T2, EP4 (Homo sapiens, UniProt P35408) (assay: EP4 binding assay (Ki)). Settings: not given.
T2 sequence (P35408 whole entry): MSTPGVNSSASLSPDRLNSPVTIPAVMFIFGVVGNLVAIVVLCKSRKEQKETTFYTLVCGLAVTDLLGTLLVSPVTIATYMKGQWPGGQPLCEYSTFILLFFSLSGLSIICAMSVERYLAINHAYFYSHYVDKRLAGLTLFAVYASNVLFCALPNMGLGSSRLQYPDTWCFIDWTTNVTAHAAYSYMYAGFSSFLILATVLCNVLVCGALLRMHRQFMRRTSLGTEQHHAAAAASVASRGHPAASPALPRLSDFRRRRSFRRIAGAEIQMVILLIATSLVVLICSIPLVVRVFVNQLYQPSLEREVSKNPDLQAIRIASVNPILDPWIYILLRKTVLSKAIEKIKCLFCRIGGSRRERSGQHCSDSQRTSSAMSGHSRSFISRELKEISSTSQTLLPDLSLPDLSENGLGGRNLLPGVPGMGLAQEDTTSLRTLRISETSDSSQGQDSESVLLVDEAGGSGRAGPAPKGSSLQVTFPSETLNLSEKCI

IC50 | Compound
0.3 nM | O=C(O)c1ccc(CC2Sc3c(Cl)cccc3N(Cc3ccccc3C(F)(F)F)C2=O)cc1 (stereo not drawn) [Compound 5]
7 nM | CC1(C)C(=O)[C@H](C/C=C\CCCC(=O)O)[C@@H](/C=C/[C@H](O)CCc2sc3ccccc3c2Cl)[C@@H]1O [Compound 2]
81 nM | O=C(O)CCCCCC[C@H]1C(=S)CCC[C@@H]1CCC(O)Cc1ccccc1 (stereo partly drawn) [Compound 1]

What follows are compounds tested against T2, EP4 (assay: EP4 cAMP functional assay). Settings: not given.
Format: cell-based

EC50 | Compound
> 10000 nM | CCCCC[C@H](O)c1ccc(N2C(=O)CC[C@@H]2CCCc2ccc(C(=O)O)s2)cc1 [Compound 3]
4 nM | O=C(O)c1ccc(CC2Sc3c(Cl)cccc3N(Cc3ccccc3C(F)(F)F)C2=O)cc1 (stereo not drawn) [Compound 5]
0.3 nM | CC1(C)C(=O)[C@H](C/C=C\CCCC(=O)O)[C@@H](/C=C/[C@H](O)CCc2sc3ccccc3c2Cl)[C@@H]1O [Compound 2]
0.9 nM | O=C(O)CCCCCC[C@H]1C(=S)CCC[C@@H]1CCC(O)Cc1ccccc1 (stereo partly drawn) [Compound 1]

Each compound was assayed against T1, EP2 (assay: EP2 cAMP functional assay). Settings: not given.
Format: cell-based

EC50 | Compound
1.9 nM | O=C(O)c1ccc(CC2Sc3c(Cl)cccc3N(Cc3ccccc3C(F)(F)F)C2=O)cc1 (stereo not drawn) [Compound 5]
71 nM | O=C(O)c1ccc(CCCN2C(=O)CC[C@@H]2CC[C@@H](O)Cc2cccc(C(F)(F)F)c2)s1 [Compound 4]
> 10000 nM | CC1(C)C(=O)[C@H](C/C=C\CCCC(=O)O)[C@@H](/C=C/[C@H](O)CCc2sc3ccccc3c2Cl)[C@@H]1O [Compound 2]
> 10000 nM | O=C(O)CCCCCC[C@H]1C(=S)CCC[C@@H]1CCC(O)Cc1ccccc1 (stereo partly drawn) [Compound 1]
